Test results as given in PubChem BioAssay (NCI).
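Tested at 5 concentrations; 48 h exposure; 96-well plates; endpoints linearly interpolated, else capped at highest concentration. The concentration for 50% growth inhibition is given as GI50. TGI marks complete inhibition of growth.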

Key:
Test in all cases: growth of human tumour cells (NCI), 48 h
[1] = test system: BT-549 breast
[2] = test system: HOP-62 NSCLC
[3] = test system: LOX IMVI melanoma
[4] = test system: M14 melanoma
[5] = test system: MCF7 breast
[6] = test system: MOLT-4 leukemia
[7] = test system: OVCAR-5 ovarian
[8] = test system: SK-MEL-5 melanoma
[9] = test system: UO-31 renal
[10] = test system: HOP-92 NSCLC

`COc1ccc(OC2OC(CO)C(OCc3ccccc3)C(OCc3ccccc3)C2OCc2ccccc2)cc1` (stereo not drawn) was tested, and the TGI [1] was > 100 µM, the TGI [2] was > 100 µM and the TGI [3] was > 100 µM. For the same compound, the TGI [4] was > 100 µM, the TGI [5] was > 100 µM and the TGI [6] was 72.9 µM. For the same compound, the TGI [7] was > 100 µM, the TGI [8] was > 100 µM and the TGI [9] was > 100 µM.

With `O=C1C=CC=C/C1=C1\N=C(c2ccccc2OCC(=O)c2ccccc2)SS1` the TGI [1] was > 100 µM, the TGI [2] was > 100 µM and the TGI [10] was > 100 µM. For the same compound, the TGI [3] was > 100 µM, the TGI [4] was > 100 µM and the TGI [5] was > 100 µM. For the same compound, the TGI [6] was 47.2 µM, the TGI [7] was > 100 µM and the TGI [9] was > 100 µM.

For `O=C(O)c1cccc2cccc(-c3cccc4cccc(C(=O)O)c34)c12`, the TGI [1] was > 100 µM, the TGI [2] was > 100 µM and the TGI [3] was > 100 µM. The TGI [4] was > 100 µM, the TGI [5] was > 100 µM and the TGI [7] was > 100 µM. The TGI [8] was > 100 µM and the TGI [9] was > 100 µM.

With `COc1ccccc1CN=C1Nc2ccncc2S(=O)(=O)N1c1ccccc1` the TGI [1] was > 100 µM, the TGI [10] was > 100 µM and the TGI [3] was > 100 µM. The TGI [4] was > 100 µM, the TGI [5] was > 100 µM and the TGI [6] was > 100 µM. The TGI [7] was > 100 µM, the TGI [8] was > 100 µM and the TGI [9] was > 100 µM.

In the case of `Cc1[nH]c(=O)nc(NCCNCCO)c1C(=O)Nc1cccc2cc3ccccc3cc12`, the TGI [1] is reported as > 100 µM, the TGI [2] is reported as > 100 µM and the TGI [10] is reported as > 100 µM. For the same compound, the TGI [3] was > 100 µM, the TGI [4] was > 100 µM and the TGI [5] was > 44 µM. For the same compound, the TGI [6] was > 100 µM, the TGI [7] was > 100 µM and the TGI [8] was > 100 µM.

In the case of `S=C(N/N=C\C(=N/NC(=S)N1CCCCC1)c1ccccc1)N1CCCCC1`, the TGI [1] is reported as 3.57 µM, the TGI [2] is reported as 5.83 µM and the TGI [10] is reported as 3.88 µM. For the same compound, the TGI [3] was > 100 µM, the TGI [4] was 3.61 µM and the TGI [5] was > 22.4 µM. It also gave a TGI [7] of 3.33 µM, a TGI [8] of 3.32 µM and a TGI [9] of 3.39 µM.

`NCCCCNCCCNC(=O)c1nc(-c2nc(CCN)sc2Cl)sc1Cl` was tested, and the TGI [2] was > 100 µM, the TGI [10] was > 100 µM and the TGI [4] was > 100 µM. The TGI [6] was > 100 µM, the TGI [7] was > 100 µM and the TGI [8] was > 100 µM. For the same compound, the TGI [9] was > 100 µM.

With `CCn1c2ccc(C(=O)CCCN3CCCCC3)cc2c2cc(C(=O)CCCN3CCCCC3)ccc21` the TGI [1] was 35 µM, the TGI [2] was 18.2 µM and the TGI [10] was 30.3 µM. It also gave a TGI [3] of 4.47 µM, a TGI [4] of 3.6 µM and a TGI [5] of 4.94 µM. The TGI [7] was 22.8 µM, the TGI [8] was 2.92 µM and the TGI [9] was 18.6 µM.

With `COC(=O)[C@@H]1CCCCC[C@H]2C(CO)=C(C)C(=O)C12` (stereo partly drawn) the TGI [2] was > 100 µM, the TGI [10] was > 100 µM and the TGI [4] was > 100 µM. The TGI [6] was > 100 µM, the TGI [7] was > 100 µM and the TGI [8] was > 100 µM. The TGI [9] was > 100 µM.

`COc1ccc(C2C3=C(COC3=O)Oc3cc4c(cc32)OCO4)c(OC)c1` (stereo not drawn) was tested, and the TGI [1] was > 100 µM, the TGI [2] was > 100 µM and the TGI [3] was > 100 µM. For the same compound, the TGI [4] was > 100 µM, the TGI [5] was > 100 µM and the TGI [6] was > 100 µM. The TGI [7] was > 100 µM, the TGI [8] was > 100 µM and the TGI [9] was > 100 µM.

For `C=C1N(C=O)C(C)(C)N(O)C1(C)C`, the TGI [2] was > 100 µM, the TGI [10] was > 100 µM and the TGI [3] was > 100 µM. The TGI [4] was > 100 µM, the TGI [5] was > 100 µM and the TGI [6] was 84.4 µM. For the same compound, the TGI [7] was > 100 µM, the TGI [8] was > 100 µM and the TGI [9] was > 100 µM.

In the case of `COC(=O)C1CCc2sc3ncnc(Nc4cn[nH]c4C(=O)Nc4ccc(CN5CCN(C)CC5)cc4)c3c21` (stereo not drawn), the GI50 [1] is reported as 0.899 µM, the TGI [1] is reported as 6.02 µM and the GI50 [2] is reported as 0.453 µM. For the same compound, the TGI [2] was 19.5 µM, the GI50 [10] was 1.14 µM and the TGI [10] was 5.88 µM. It also gave a GI50 [3] of 0.405 µM, a TGI [3] of 1.79 µM and a GI50 [4] of 0.708 µM. For the same compound, the TGI [4] was 2.14 µM, the GI50 [6] was 0.324 µM and the TGI [6] was 0.991 µM. For the same compound, the GI50 [8] was 0.58 µM, the TGI [8] was 2.56 µM and the GI50 [9] was 0.455 µM. For the same compound, the TGI [9] was 9.51 µM.

`CCOC(=O)c1s/c(=N\Nc2nc3ccccc3cc2C2OCCO2)n(Cc2ccccc2)c1C` was tested, and the TGI [2] was > 100 µM, the TGI [10] was > 100 µM and the TGI [3] was > 100 µM. For the same compound, the TGI [4] was > 100 µM, the TGI [6] was > 100 µM and the TGI [7] was > 100 µM. The TGI [8] was > 100 µM and the TGI [9] was > 100 µM.

In the case of `COC(=O)C1(CCCCCBr)CCCCCCCCCCC1=O` (stereo not drawn), the TGI [2] is reported as > 100 µM, the TGI [10] is reported as > 100 µM and the TGI [3] is reported as 63.3 µM. For the same compound, the TGI [4] was > 100 µM, the TGI [5] was 42.2 µM and the TGI [6] was 35.6 µM. The TGI [7] was > 100 µM, the TGI [8] was 35.1 µM and the TGI [9] was 31.8 µM.

In the case of `COc1ccc2nc(/C(N)=C\C#N)ccc2c1`, the TGI [2] is reported as > 100 µM, the TGI [10] is reported as > 100 µM and the TGI [3] is reported as > 100 µM. The TGI [4] was > 100 µM, the TGI [5] was > 100 µM and the TGI [6] was 88.5 µM. The TGI [7] was > 100 µM, the TGI [8] was > 100 µM and the TGI [9] was > 100 µM.

For `CCC1=C(C(C)=O)[C@@H]2CCCCC[C@@H](C(=O)OC)C2C1=O` (stereo partly drawn), the TGI [2] was > 100 µM, the TGI [10] was > 100 µM and the TGI [4] was > 100 µM. For the same compound, the TGI [6] was > 100 µM, the TGI [7] was > 100 µM and the TGI [8] was > 100 µM. For the same compound, the TGI [9] was > 100 µM.

In the case of `COC(=O)C1C(C(=O)OC)C2(OC(c3ccc(Cl)cc3)=CC2=O)C12OC(c1ccc(Cl)cc1)=CC2=O` (stereo not drawn), the TGI [1] is reported as 42.5 µM, the TGI [10] is reported as 37.6 µM and the TGI [3] is reported as 57.4 µM. For the same compound, the TGI [4] was 42.8 µM, the TGI [5] was 64.6 µM and the TGI [6] was 49.2 µM. It also gave a TGI [7] of 95.1 µM, a TGI [8] of 37.9 µM and a TGI [9] of 33.6 µM.

In the case of `Nc1nc(Cl)cc(NCC2(O)CC2)n1`, the TGI [1] is reported as > 100 µM, the TGI [2] is reported as > 100 µM and the TGI [10] is reported as > 100 µM. For the same compound, the TGI [3] was > 100 µM, the TGI [5] was > 100 µM and the TGI [6] was > 100 µM. The TGI [7] was > 100 µM, the TGI [8] was > 100 µM and the TGI [9] was > 100 µM.

For `CSC(SC)=C(C(=O)O)P(=O)(O)O`, the TGI [2] was > 100 µM, the TGI [10] was > 100 µM and the TGI [3] was > 100 µM. For the same compound, the TGI [4] was > 100 µM, the TGI [5] was > 100 µM and the TGI [6] was > 100 µM. For the same compound, the TGI [7] was > 100 µM and the TGI [8] was > 100 µM.

In the case of `CS(=O)(=O)Nc1ccc2c(c1)N(S(C)(=O)=O)CC2CCl` (stereo not drawn), the TGI [1] is reported as > 100 µM, the TGI [2] is reported as > 100 µM and the TGI [10] is reported as > 100 µM. The TGI [3] was > 100 µM, the TGI [5] was > 100 µM and the TGI [6] was > 100 µM. The TGI [7] was > 100 µM, the TGI [8] was > 100 µM and the TGI [9] was > 100 µM.

With `CC(C)N1CC2CC(CN(C(=O)c3ccccc3)C2)C1` the TGI [2] was > 100 µM, the TGI [10] was > 100 µM and the TGI [3] was > 100 µM. The TGI [4] was > 100 µM, the TGI [6] was > 100 µM and the TGI [7] was > 100 µM. For the same compound, the TGI [8] was > 100 µM and the TGI [9] was > 100 µM.

For `Cc1c(CN2CCN(C)CC2)c(CN2CCN(C)CC2)c(C)n1-c1ccc(Cl)cc1`, the TGI [1] was > 100 µM, the TGI [2] was > 100 µM and the TGI [4] was 32 µM. The TGI [5] was > 100 µM, the TGI [6] was 82.8 µM and the TGI [7] was > 100 µM. For the same compound, the TGI [8] was 31.7 µM and the TGI [9] was 87.9 µM.

For `COc1cc(CC(C)NC(C)=O)cc(OC)c1` (stereo not drawn), the TGI [1] was > 100 µM, the TGI [2] was > 100 µM and the TGI [3] was > 100 µM. For the same compound, the TGI [4] was > 100 µM, the TGI [5] was > 100 µM and the TGI [6] was > 100 µM. The TGI [7] was > 100 µM, the TGI [8] was > 100 µM and the TGI [9] was > 100 µM.
